Measured values reported in PMC3551575 (Molecular microbiology, 2011).

Key:
FurX = target: T1, FurX (Cupriavidus pinatubonensis, UniProt Q46UZ9); test: affinity measurement, method only in supplement; assay type: binding
T1 sequence (Q46UZ9 1-342): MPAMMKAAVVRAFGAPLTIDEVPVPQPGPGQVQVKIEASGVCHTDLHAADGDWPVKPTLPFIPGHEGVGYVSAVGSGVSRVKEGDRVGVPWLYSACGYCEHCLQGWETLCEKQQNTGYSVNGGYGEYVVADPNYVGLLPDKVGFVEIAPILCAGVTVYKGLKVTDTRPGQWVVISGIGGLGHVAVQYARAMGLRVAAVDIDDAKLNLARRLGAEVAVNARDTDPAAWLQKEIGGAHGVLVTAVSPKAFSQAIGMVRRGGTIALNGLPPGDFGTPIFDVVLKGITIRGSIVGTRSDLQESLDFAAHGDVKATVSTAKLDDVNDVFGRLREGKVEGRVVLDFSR

[1] = target: FurX, Zn-dependent alcohol dehydrogenase from Cupriavidus necator JMP134 (Cupriavidus necator JMP134); test: SEC-MALS

Compound	Kd (FurX) [µM]	stoichiometry N [1]
NC(=O)c1ccc[n+]([C@@H]2O[C@H](COP(=O)(O)OP(=O)(O)OC[C@H]3O[C@@H](n4cnc5c(N)ncnc54)[C@H](O)[C@@H]3O)[C@@H](O)[C@H]2O)c1 [NAD^+]	87	
OCc1ccco1 [furfuryl alcohol]	> 1000	
FurX, Zn-dependent alcohol dehydrogenase from Cupriavidus necator JMP134 (enzyme)		4
